The values below come from patent US5654320A, “Indazolecarboxamides” (Eli Lilly and Company, priority 1995, dated 1997).

Structures are written as SMILES. Where a name gives a salt, the structure may show the parent alone.

T1 sequence (Q62758 whole entry): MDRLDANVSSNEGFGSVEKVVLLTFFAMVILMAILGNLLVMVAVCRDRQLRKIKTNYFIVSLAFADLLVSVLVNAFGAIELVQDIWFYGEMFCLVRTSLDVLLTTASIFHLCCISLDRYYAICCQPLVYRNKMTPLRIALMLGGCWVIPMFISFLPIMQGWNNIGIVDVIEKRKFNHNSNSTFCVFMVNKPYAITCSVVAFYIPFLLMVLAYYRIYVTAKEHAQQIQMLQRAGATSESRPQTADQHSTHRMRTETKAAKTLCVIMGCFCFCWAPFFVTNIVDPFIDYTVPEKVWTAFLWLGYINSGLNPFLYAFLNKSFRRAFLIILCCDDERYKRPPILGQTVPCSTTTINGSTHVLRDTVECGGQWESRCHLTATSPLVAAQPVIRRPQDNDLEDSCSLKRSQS

The first assay has as its target T1, 5-HT4 receptor (Rattus norvegicus, UniProt Q62758).
T1 construct: esophagus smooth muscle, freshly removed from male Wistar rats; from tissue; host or cells: esophagus smooth muscle of male Wistar rats
Description: 5-HT4 receptor antagonism in carbamylcholine-contracted isolated esophagus smooth muscle (antagonism of serotonin-induced relaxation). Set-up: species or system male Wistar rats.
Conditions: not given
As for the experimental part:
The test was carried out in esophagus smooth muscle, freshly removed from male Wistar rats weighing 250-300 g each. The rats were killed by cervical dislocation, and the esophagus was removed and dissected free of connective tissue. The esophagi were used as longitudinal preparations--obtaining two preparations from each animal. The tissues were tied with thread at each end with the lower end being tied to a stationary glass rod and the upper end to a force transducer.
Tissues were mounted in organ baths containing 10 mL of modified Krebs' solution of the following composition (millimolar) NaCl 118.2; KCl 4.6; CaCl2.2H2 O 1.6; KH2 PO4 1.2; MgSO4 1.2; dextrose 10.0; and NaHCO3 24.8. Tissue bath solutions were maintained at 37° C. and aerated with 95% O2 -5% CO2. Tissues were placed under optimum resting force, 1 g, and were allowed to equilibrate for 1 hr before exposure to drugs. Isometric contractions were recorded as changes in grams of force on the Modular Instruments Inc. (Malvern, Pa.) model M4000 data acquisition system with Sensotec (Columbus, Ohio) model MBL 5514-02 transducers.
For studies with partial agonists or antagonists, tissues were preincubated with vehicle or antagonist for 45 min. All drugs were prepared daily in deionized water and kept on ice during the course of the experiment. The tissues were contracted by incubation with 10^-7 -10^-5 M carbamylcholine, and were relaxed by the addition of serotonin at 10^-8 -10^-10 M, which treatment relaxed the tissue and reduced the contraction caused by carbamylcholine. Addition of a compound of the present invention antagonized the serotonin response and reduced the observed relaxations of the tissue. Repeated tests of each compound at various concentrations were carried out, and the concentration that caused a two-fold shift of the relaxation curve was calculated. That concentration is reported here as the negative logarithm. In each case, the SEM of the data has been calculated and is shown below, as is the number of experiments carried out with each compound.
Broadly, the Kb is the affinity of an antagonist, worked out from how it opposes an agonist. As for `CC(C)n1nc(C(=O)NCCN2CCCCC2)c2ccccc21` [Example 2, N-[2-(1-piperidinyl)ethyl]-1-(2-propyl)-1H-indazole-3-carboxamide hydrochloride], the antagonist dissociation constant (Kb) is 10 nM.
Consider `CC(C)n1nc(C(=O)NCCCN2CCCCC2)c2ccccc21` [Example 4, N-[3-(1-piperidinyl)propyl]-1-(2-propyl)-1H-indazole-3-carboxamide hydrochloride], for which the Kb is 7.94 nM.
With `CC(C)n1nc(C(=O)NCCCCN2CCCCC2)c2ccccc21` [Example 6, N-[4-(1-piperidinyl)butyl]-1-(2-propyl)-1H-indazole-3-carboxamide oxalate], the Kb was 6.31 nM.
The same measure, in the same setting: as for `CC(C)n1nc(C(=O)NCCN2CCC(NC(=O)OCc3ccccc3)CC2)c2ccccc21` [Example 8, N-[2-(4-benzyloxycarbonylamino-1-piperidinyl)ethyl]-1-(2-propyl)-1H-indazole-3-carboxamide oxalate], the figure is 1.58 nM; as for `CC(C)n1nc(C(=O)NCCN2CCCC2)c2ccccc21` [Example 10, N-[2-(1-pyrrolidinyl)ethyl]-1-(2-propyl)-1H-indazole-3-carboxamide hydrochloride], 20 nM; as for `CC(C)n1nc(C(=O)NCCN2CCCCCC2)c2ccccc21` [Example 12, N-[2-(1-hexamethyleneiminyl)ethyl]-1-(2-propyl)-1H-indazole-3-carboxamide hydrochloride], 10 nM.
On the same count and under the same terms, as for `CC(C)n1nc(C(=O)NCCN2CCOCC2)c2ccccc21` [Example 14, N-[2-(4-morpholinyl)ethyl]-1-(2-propyl)-1H-indazole-3-carboxamide hydrochloride], the figure is 25.1 nM.
As to `CC(C)n1nc(C(=O)NCCN2CCN(Cc3ccccc3)CC2)c2ccccc21` [Example 16, N-[2-(4-benzyl-1-piperazinyl)ethyl]-1-(2-propyl)-1H-indazole-3-carboxamidedihydrochloride], the Kb is 10 nM.
Same read-out and setting: as for `CC(C)n1nc(C(=O)NCCN2CCN(C(=O)c3ccccc3)CC2)c2ccccc21` [Example 18, N-[2-(4-benzoyl-1-piperazinyl)ethyl]-1-(2-propyl)-1H-indazole-3-carboxamide oxalate], the figure is 31.6 nM.
Still for that read-out and setting: the result for `CC(C)n1nc(C(=O)NCCN2CCC(Cc3ccccc3)CC2)c2ccccc21` [Example 20, N-[2-(4-benzyl-1-piperidinyl)ethyl]-1-(2-propyl)-1H-indazole-3-carboxamideoxalate] reads 50.1 nM; that for `CC(C)n1nc(C(=O)NCCN2CCc3ccccc3C2)c2ccccc21` [Example 22, N-[2-(1,2,3,4-tetrahydro-2-isoquinolinyl)ethyl]-1-(2-propyl)-1H-indazole-3-carboxamide oxalate], 10 nM.
Regarding `CC(C)n1nc(C(=O)NCCN2CCC(N)CC2)c2ccccc21` [Example 23, N-[2-(4-amino-1-piperidinyl)ethyl]-1-(2-propyl)-1H-indazole-3-carboxamide dioxalate], the Kb was 158 nM.
On to `CC(C)n1nc(C(=O)NCCN2CCC(NS(C)(=O)=O)CC2)c2ccccc21` [Example 24, N-[2-(4-methylsulfonylamino-1-piperidinyl)ethyl]-1-(2-propyl)-1H-indazole-3-carboxamide oxalate], for which the antagonist equilibrium constant (Kb) was 12.6 nM.
On the same count and under the same terms, as for `CC(C)n1nc(C(=O)NCCN2CCC(NC(=O)c3ccccc3)CC2)c2ccccc21` [Example 25, N-[2-(4-benzoylamino-1-piperidinyl)ethyl]-1-(2-propyl)-1H-indazole-3-carboxamide oxalate], the figure is 2.51 nM; as for `CC(C)n1nc(C(=O)NCCN2CCC(NC(=O)Cc3ccccc3)CC2)c2ccccc21` [Example 26, N-[2-(4-benzylcarbonylamino-1-piperidinyl)ethyl]-1-(2-propyl)-1H-indazole-3-carboxamide oxalate], 3.98 nM.
Still for that read-out and setting: the result for `CC(C)n1nc(C(=O)NCCN2CCC(NC(=O)C34CC5CC(CC(C5)C3)C4)CC2)c2ccccc21` [Example 27, N-[2-(4-(1-adamantylcarbonylamino)-1-piperidinyl)ethyl]-1-(2-propyl)-1H-indazole-3-carboxamide oxalate] reads 0.126 nM; that for `CC(=O)NC1CCN(CCNC(=O)c2nn(C(C)C)c3ccccc23)CC1` [Example 28, N-[2-(4-acetylamino-1-piperidinyl)ethyl]-1-(2-propyl)-1H-indazole-3-carboxamide oxalate], 5.01 nM; that for `CCC(=O)NC1CCN(CCNC(=O)c2nn(C(C)C)c3ccccc23)CC1` [Example 29, N-[2-(4-propionylamino-1-piperidinyl)ethyl]-1-(2-propyl)-1H-indazole-3-carboxamide oxalate], 3.16 nM.
On the same count and under the same terms, as for `CCCC(=O)NC1CCN(CCNC(=O)c2nn(C(C)C)c3ccccc23)CC1` [Example 30, N-[2-(4-butyrylamino-1-piperidinyl)ethyl]-1-(2-propyl)-1H-indazole-3-carboxamide oxalate], the figure is 15.8 nM; as for `CCCCC(=O)NC1CCN(CCNC(=O)c2nn(C(C)C)c3ccccc23)CC1` [Example 31, N-[2-(4-valerylamino-1-piperidinyl)ethyl]-1-(2-propyl)-1H-indazole-3-carboxamide], 20 nM; as for `CC(C)C(=O)NC1CCN(CCNC(=O)c2nn(C(C)C)c3ccccc23)CC1` [Example 32, N-[2-(4-isobutyrylamino-1-piperidinyl)ethyl]-1-(2-propyl)-1H-indazole-3-carboxamide oxalate], 2.51 nM.
`CC(C)n1nc(C(=O)NCCN2CCC(NC(=O)C(C)(C)C)CC2)c2ccccc21` [Example 33, N-[2-(4-trimethylacetylamino-1-piperidinyl)ethyl]-1-(2-propyl)-1H-indazole-3-carboxamide oxalate] had an antagonist dissociation constant (Kb) of 3.16 nM.
On the same count and under the same terms, as for `CC(C)n1nc(C(=O)NCCN2CCC(NC(=O)NCc3ccccc3)CC2)c2ccccc21` [Example 34, N-[2-(4-benzylaminocarbonylamino)-1-piperidinyl)ethyl]-1-(2-propyl)-1H-indazole-3-carboxamide oxalate], the figure is 5.01 nM.
The same measure, in the same setting: as for `CC(C)n1nc(C(=O)NCCN2CCC(NC(=O)Nc3ccccc3)CC2)c2ccccc21` [Example 35, N-[2-(4-phenylaminocarbonylamino)-1-piperidinyl)ethyl]-1-(2-propyl)-1H-indazole-3-carboxamide oxalate], the figure is 10 nM; as for `CC(C)n1nc(C(=O)NCCN2CCC(NC(=O)Nc3ccc(F)cc3)CC2)c2ccccc21` [Example 36, N-[2-(4-(4-fluorophenylaminocarbonylamino)-1-piperidinyl)ethyl]-1-(2-propyl)-1H-indazole-3-carboxamide oxalate], 25.1 nM.
Still for that read-out and setting: as for `CC(C)n1nc(C(=O)NCCN2CCC(NC(=O)C34CC5CC(CC(O)(C5)C3)C4)CC2)c2ccccc21` [Example 37, N-[2-(4-(3-hydroxy-1-adamantylcarbonylamino)-1-piperidinyl)ethyl]-1-(2-propyl)-1H-indazole-3-carboxamide oxalate], the figure is 1.26 nM; as for `CC(C)n1nc(C(=O)NCCN2CCC(NC(=O)C34CC5CC(C3)C(O)C(C5)C4)CC2)c2ccccc21` (centres unmarked) [Example 38, N-[2-(4-(4-hydroxy-1-adamantylcarbonylamino)-1-piperidinyl)ethyl]-1-(2-propyl)-1H-indazole-3-carboxamide oxalate], 2 nM.

The assay is the same for the next values; noted with them: negative logarithm of concentration that caused a two-fold shift of the serotonin relaxation curve; rat esophagus; 45 min preincubation; ± SEM (number of experiments); read-out: -Log KB (converted).
Consider `O=C(NCCN1CCCCC1)c1n[nH]c2ccccc12` [Example 1, N-[2-(1-piperidinyl)ethyl]-1H-indazole-3-carboxamide hydrochloride], for which the Kb is 31.6 nM.

The next assay concerns 5-HT4 receptor.
Assay: not given
To be noted: presently known compound; cited from earlier work.
As to `COc1cc(N)c(Cl)cc1C(=O)NC1CCN(CCCOc2ccc(F)cc2)CC1OC` (centres unmarked) [cisapride], the “affinity at the 5-HT4 receptor” value is recorded as “high affinity”.
